Data on 32 molecules can be found in US7994209B2, “3-phenoxymethylpyrrolidine compounds” (Theravance, Inc., priority 2009, dated 2011).

As a reminder, the pKi is the negative decadic logarithm of the Ki, by convention in mol/L. Read a high pKi as a low Ki.

For assay [1], the target named is T1, hNET (Homo sapiens, UniProt P23975). Kind of assay: hNET membrane radioligand binding assay (3H-nisoxetine), Assay 1.
The target of assay [2] is T2, hSERT (Homo sapiens, UniProt P31645). The assay is described as follows: hSERT neurotransmitter uptake assay (3H-5-HT), Assay 2. In kind it is cell-based. Details: expressed in transfected cells; host or cells: HEK-293. Conditions: serotonin reuptake inhibition, 3H-5-HT uptake, HEK-293 hSERT cells (values without asterisk); read-out: SERT pIC50 (converted). As for the experimental part:
(§1) Cells were harvested by centrifugation at 1100 rpm for 5 minutes, washed once by resuspension in PBS, then centrifuged. The supernatant was discarded and the cell pellet resuspended, by gentle trituration, in room temperature Krebs-Ringer bicarbonate buffer containing HEPES (10 mM), CaCl2 (2.2 mM), ascorbic acid (200 μM) and pargyline (200 μM), pH 7.4.
(§2) Test compounds were incubated for 30 minutes at 37° C. with the respective cells, prior to addition of radiolabeled neurotransmitter, ^3H-5-HT (20 nM final concentration), ^3H-NE (50 nM final concentration) or ^3H-DA (100 nM final concentration).

Assay [3] has as its target T1, hNET. The assay is described as follows: hNET neurotransmitter uptake assay (3H-NE), Assay 2. Details: expressed in transfected cells; host or cells: HEK-293. In kind it is cell-based. To be noted: norepinephrine reuptake inhibition, 3H-NE uptake, HEK-293 hNET cells (values without asterisk); read-out: NET pIC50 (converted). As for the experimental part:
as §1, §2

Assay [4] concerns the target T2, hSERT. The assay is described as follows: hSERT membrane radioligand binding assay (3H-citalopram), Assay 1. Conditions: SERT pKi, hSERT HEK-293 membranes, 1.0 nM 3H-citalopram; values given as lower bounds.
Description: Membrane radioligand binding assays were used to measure inhibition of labeled ligand (^3H-citalopram or ^3H-nisoxetine or ^3H-WIN35428) binding to membranes prepared from cells expressing the respective human recombinant transporter (hSERT or hNET or hDAT) in order to determine the pKi values of test compounds at the transporters.
Recombinant human embryonic kidney (HEK-293) derived cell lines stably transfected with hSERT or hNET, respectively, were grown in DMEM medium supplemented with 10% dialyzed FBS (for hSERT) or FBS (for hNET), 100 μg/mL penicillin, 100 μg/mL streptomycin, 2 mM L-glutamine and 250 μg/mL of the aminoglycoside antibiotic G418, in a 5% CO2 humidified incubator at 37° C. When cultures reached 80% confluence, the cells were washed thoroughly in PBS (without Ca^2+ and Mg^2+) and lifted with 5 mM EDTA in PBS. Cells were pelleted by centrifugation, resuspended in lysis buffer (10 mM Tris-HCl, pH7.5 containing 1 mM EDTA), homogenized, pelleted by centrifugation, then resuspended in 50 mM Tris-HCl, pH 7.5 and 10% sucrose at 4° C. Protein concentration of the membrane suspension was determined using a Bio-Rad Bradford Protein Assay kit. Membranes were snap frozen and stored at −80° C.
Binding assays were performed in a 96-well assay plate in a total volume of 200 μl assay buffer (50 mM Tris-HCl, 120 mM NaCl, 5 mM KCl, pH 7.4) with 0.5, 1, and 3 μg membrane protein, for SERT, NET and DAT, respectively.
Stock solutions (10 mM in DMSO) of test compound were prepared and serial dilutions made using Dilution Buffer (50 mM Tris-HCl, 120 mM NaCl, 5 mM KCl, pH 7.4, 0.1% BSA, 400 μM ascorbic acid).
Following a 60 minute incubation at 22° C. (or a period sufficient to reach equilibrium), the membranes were harvested by rapid filtration over a 96-well UniFilter GF/B plate, pretreated with 0.3% polyethyleneimine, and washed 6 times with 300 μl wash buffer (50 mM Tris-HCl, 0.9% NaCl, pH 7.5 at 4° C.). Plates were dried overnight at room temperature, approximately 45 μl of MicroScint™-20 (Perkin Elmer) added and bound radioactivity quantitated via liquid scintillation spectroscopy. Inhibition curves and saturation isotherms were analyzed using GraphPad Prism Software package (GraphPad Software, Inc., San Diego, Calif.). IC50 values were generated from concentration response curves using the Sigmoidal Dose Response (variable slope) algorithm in Prism GraphPad.

pKi: −log10 of the molar value.

T1 sequence (P23975 whole entry): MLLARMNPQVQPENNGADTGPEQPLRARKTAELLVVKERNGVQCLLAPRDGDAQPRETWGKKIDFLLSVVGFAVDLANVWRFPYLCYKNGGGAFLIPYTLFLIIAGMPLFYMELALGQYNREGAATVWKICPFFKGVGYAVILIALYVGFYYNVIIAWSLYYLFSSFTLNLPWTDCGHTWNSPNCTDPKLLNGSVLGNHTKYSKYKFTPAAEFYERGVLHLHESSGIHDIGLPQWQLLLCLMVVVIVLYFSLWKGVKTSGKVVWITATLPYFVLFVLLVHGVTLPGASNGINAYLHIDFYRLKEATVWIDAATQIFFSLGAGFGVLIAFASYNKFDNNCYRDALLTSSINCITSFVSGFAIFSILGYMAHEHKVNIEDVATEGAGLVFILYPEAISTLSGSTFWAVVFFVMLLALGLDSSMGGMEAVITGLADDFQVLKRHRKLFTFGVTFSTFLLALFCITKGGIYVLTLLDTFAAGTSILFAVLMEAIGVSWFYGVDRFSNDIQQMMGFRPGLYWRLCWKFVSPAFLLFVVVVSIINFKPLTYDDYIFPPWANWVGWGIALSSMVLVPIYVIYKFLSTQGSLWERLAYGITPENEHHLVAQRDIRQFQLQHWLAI
T2 sequence (P31645 whole entry): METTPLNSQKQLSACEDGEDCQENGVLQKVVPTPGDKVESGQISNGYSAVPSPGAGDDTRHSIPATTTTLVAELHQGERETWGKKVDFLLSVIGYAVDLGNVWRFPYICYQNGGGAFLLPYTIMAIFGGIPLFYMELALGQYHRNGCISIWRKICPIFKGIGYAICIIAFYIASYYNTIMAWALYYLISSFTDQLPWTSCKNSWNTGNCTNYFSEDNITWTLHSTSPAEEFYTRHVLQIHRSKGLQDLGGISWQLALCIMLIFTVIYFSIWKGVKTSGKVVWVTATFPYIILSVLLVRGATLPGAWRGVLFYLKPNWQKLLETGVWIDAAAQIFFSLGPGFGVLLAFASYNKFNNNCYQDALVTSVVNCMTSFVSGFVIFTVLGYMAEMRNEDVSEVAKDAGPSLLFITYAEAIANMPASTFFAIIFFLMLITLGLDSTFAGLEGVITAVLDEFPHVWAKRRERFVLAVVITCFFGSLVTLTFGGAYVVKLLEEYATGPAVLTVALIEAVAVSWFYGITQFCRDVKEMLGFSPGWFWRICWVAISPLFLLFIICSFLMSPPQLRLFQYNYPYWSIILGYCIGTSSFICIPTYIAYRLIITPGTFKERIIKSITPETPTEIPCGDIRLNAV

For `CC(C)[C@@H](Oc1cccc(F)c1Cl)[C@H]1CCNC1` [Example 6-19, (S)-3-[(R)-1-(2-Chloro-3-fluorophenoxy)-2-methylpropyl]pyrrolidine], the figures for the pKi at hNET [1] and on hSERT [4] were at least 7.00 and at least 8.00, respectively. Further, the IC50 was at most 10 nM at hSERT [2] and at most 100 nM on hNET [3].

Consider `CC(C)CC(Oc1ccc(F)cc1)C1CCNC1` (centres unmarked) [Example 10-9, 3-[1-(4-Fluorophenoxy)-3-methylbutyl]pyrrolidine], for which the pKi at hNET [1] and on hSERT [4] was at least 8.00 in each case. The IC50 at hSERT [2] was at most 100 nM; on hNET [3], at most 10 nM.

As for `Cc1cc(Cl)ccc1O[C@@H](CC(C)C)[C@H]1CCNC1` [Example 10-47, (S)-3-[(S)-1-(4-Chloro-2-methylphenoxy)-3-methylbutyl]pyrrolidine], the pKi on hNET [1] and on hSERT [4] was at least 8.00 each time. In addition, the IC50 on hSERT [2] and on hNET [3] was at most 10 nM each time.

For the molecule `COc1cc(Cl)ccc1O[C@@H](C(C)C)[C@H]1CCNC1` [Example 6-47, (S)-3-[(S)-1-(4-Chloro-2-methoxyphenoxy)-2-methylpropyl]pyrrolidine], the pKi on hNET [1] and on hSERT [4] was at least 8.00 in each case. The IC50 on hSERT [2] and at hNET [3] was at most 10 nM throughout.

With `CCC[C@H](Oc1ccc(F)cc1)[C@H]1CCNC1` [Example 4-5, (S)-3-[(S)-1-(4-Fluorophenoxy)butyl]pyrrolidine], the pKi on hNET [1] and at hSERT [4] was at least 8.00 throughout. In addition, the IC50 at hSERT [2] is at most 100 nM; at hNET [3] it was at most 10 nM.

For `Clc1ccc(O[C@@H](C2CC2)[C@H]2CCNC2)cc1` [Example 16-103, (S)-3-[(S)-(4-Chlorophenoxy)cyclopropylmethyl]pyrrolidine], the pKi at hNET [1] and at hSERT [4] was at least 8.00 each time. Also, the IC50 at hSERT [2] and at hNET [3] was at most 10 nM each time.

`CC(C)C[C@H](Oc1cc(F)c(F)cc1F)[C@H]1CCNC1` [Example 10-57, (S)-3-[(S)-3-Methyl-1-(2,4,5-trifluorophenoxy)butyl]pyrrolidine]: the pKi on hNET [1] and at hSERT [4] was at least 8.00 each time. The IC50 at hSERT [2] was at most 100 nM; at hNET [3] it was at most 10 nM.

For `Fc1cccc(O[C@H](C2CCCCC2)[C@H]2CCNC2)c1Cl` [Example 20-5, (S)-3-[(R)-(2-Chloro-3-fluorophenoxy)cyclohexylmethyl]pyrrolidine], the pKi at hNET [1] and on hSERT [4] was at least 8.00 in each case. The IC50 at hSERT [2] and on hNET [3] was at most 10 nM throughout.

Take `CC(C)C(Oc1cccc(Cl)c1Cl)C1CCNC1` (centres unmarked) [Example 6-13, 3-[1-(2,3-Dichlorophenoxy)-2-methylpropyl]pyrrolidine]: the pKi at hNET [1] and on hSERT [4] was at least 8.00 in each case. In addition, the IC50 on hSERT [2] and on hNET [3] was at most 10 nM each time.

In the case of `CCC[C@H](Oc1ccc(Cl)cc1C)[C@H]1CCNC1` [Example 4-58, (S)-3-[(S)-1-(4-Chloro-2-methylphenoxy)butyl]pyrrolidine], the pKi on hNET [1] and at hSERT [4] was at least 8.00 each time. In addition, the IC50 on hSERT [2] and at hNET [3] was at most 10 nM throughout.

On to `CCC[C@H](Oc1ccc(Cl)c(F)c1)[C@H]1CCNC1` [Example 4-18, (S)-3-[(S)-1-(4-Chloro-3-fluorophenoxy)butyl]pyrrolidine], for which the pKi at hNET [1] and on hSERT [4] was at least 8.00 each time. Moreover, the IC50 at hSERT [2] and at hNET [3] was at most 10 nM each time.

For `CCC[C@H](Oc1ccc(F)c(F)c1F)[C@H]1CCNC1` [Example 4-50, (S)-3-[(S)-1-(2,3,4-Trifluorophenoxy)butyl]pyrrolidine], the pKi at hNET [1] and on hSERT [4] was at least 8.00 throughout. Besides, the figures for the IC50 at hSERT [2] and on hNET [3] were at most 100 nM and at most 10 nM, respectively.

On to `CCC[C@@H](Oc1ccccc1Cl)[C@H]1CCNC1` [Example 4-20, (S)-3-[(R)-1-(2-Chlorophenoxy)butyl]pyrrolidine], for which the pKi at hNET [1] and on hSERT [4] was at least 8.00 in each case. The IC50 is at most 100 nM on hSERT [2] and at most 10 nM on hNET [3].

`CC[C@H](Oc1cccc(Cl)c1C(F)(F)F)[C@H]1CCNC1` [Example 2-71, (S)-3-[(S)-1-(3-Chloro-2-trifluoromethylphenoxy)propyl]pyrrolidine]: the pKi at hNET [1] and at hSERT [4] was at least 8.00 in each case. In addition, the IC50 is at most 100 nM on hSERT [2] and at most 10 nM on hNET [3].

Turning to `CC[C@H](Oc1ccc(Cl)cc1)[C@H]1CCNC1` [Example 2-2, (S)-3-[(S)-1-(4-Chlorophenoxy)propyl]pyrrolidine], the pKi on hNET [1] and on hSERT [4] was at least 8.00 each time. Further, the IC50 at hSERT [2] and on hNET [3] was at most 10 nM each time.

Turning to `CC(C)CC(Oc1cccc(F)c1)C1CCNC1` (centres unmarked) [Example 10-26, 3-[1-(3-Fluorophenoxy)-3-methylbutyl]pyrrolidine], the IC50 at hSERT [2] and at hNET [3] was at most 10 nM in each case. This molecule gave a pKi on hSERT [4] of at least 8.00.

On to `CC(C)CC(Oc1ccccc1F)C1CCNC1` (centres unmarked) [Example 10-2, 3-[1-(2-Fluorophenoxy)-3-methylbutyl]pyrrolidine], for which the figures for the negative logarithm of the Ki (pKi) on hNET [1] and on hSERT [4] were at least 8.00 and at least 7.00, respectively.

For the molecule `CC[C@@H](Oc1cc(F)cc(F)c1Cl)[C@H]1CCNC1` [Example 2-36, (S)-3-[(R)-1-(2-Chloro-3,5-difluorophenoxy)propyl]pyrrolidine], the pKi on hNET [1] and on hSERT [4] was at least 7.00 in each case.

In the case of `FC(F)(F)c1cc(Cl)ccc1O[C@@H](C1CC1)[C@H]1CCNC1` [Example 16-35, (S)-3-[(S)-(4-Chloro-2-trifluoromethylphenoxy)cyclopropylmethyl]pyrrolidine], the pKi at hNET [1] and on hSERT [4] was at least 8.00 throughout.

In the case of `CSc1ccccc1O[C@@H](C1CC1)[C@H]1CCNC1` [Example 16-5, (S)-3-[(S)cyclopropyl-(2-methylsulfanylphenoxy)methyl]pyrrolidine], the figures for the negative logarithm of the Ki (pKi) at hNET [1] and at hSERT [4] were at least 8.00 and at least 7.00, respectively.

On to `CC[C@H](Oc1ccc(Cl)cc1C)[C@@H]1CCNC1` [Example 2-61, (R)-3-[(S)-1-(4-Chloro-2-methylphenoxy)propyl]pyrrolidine], for which the values for the pKi on hNET [1] and at hSERT [4] were at least 7.00 and at least 8.00, respectively.

`Clc1ccc(O[C@H](C2CC2)[C@@H]2CCNC2)c(Cl)c1` [Example 16-21, (R)-3-[(R)cyclopropyl-(2,4-dichlorophenoxy)methyl]pyrrolidine]: the figures for the pKi at hNET [1] and at hSERT [4] were at least 7.00 and at least 8.00, respectively.

As for `Fc1cc(O[C@H](C2CC2)[C@@H]2CCNC2)ccc1Cl` [Example 16-92, (R)-3-[(R)-(4-Chloro-3-fluorophenoxy)cyclopropylmethyl]pyrrolidine], the pKi at hNET [1] was at least 7.00; at hSERT [4] it was at least 8.00.

On to `CC[C@H](Oc1cccc(F)c1)[C@H]1CCNC1` [Example 2-9, (S)-3-[(S)-1-(3-Fluorophenoxy)propyl]pyrrolidine], for which the pKi at hNET [1] is at least 8.00; on hSERT [4] it was at least 7.00.

On to `CCCC[C@@H](Oc1ccc(C)cc1Cl)[C@H]1CCNC1` [Example 8-9, (S)-3-[(R)-1-(2-Chloro-4-methylphenoxy)pentyl]pyrrolidine], for which the pKi at hNET [1] is at least 7.00; on hSERT [4], at least 8.00.

With `CC(C)C(Oc1cccc(C(F)(F)F)c1)C1CCNC1` (centres unmarked) [Example 6-72, 3-[2-Methyl-1-(3-trifluoromethylphenoxy)-propyl]pyrrolidine], the pKi was at least 7.00 at hNET [1] and at least 8.00 on hSERT [4].

Turning to `CC[C@@H](Oc1c(Cl)ccc(C)c1F)[C@H]1CCNC1` [Example 2-54, (S)-3-[(R)-1-(6-Chloro-2-fluoro-3-methylphenoxy)propyl]pyrrolidine], the pKi on hNET [1] was at least 8.00; on hSERT [4], at least 7.00.

Turning to `CCC[C@@H](Oc1ccc(Cl)cc1C)[C@H]1CCNC1` [Example 4-60, (S)-3-[(R)-1-(4-Chloro-2-methylphenoxy)butyl]pyrrolidine], the values for the pKi on hNET [1] and on hSERT [4] were at least 7.00 and at least 8.00, respectively.

Consider `CC[C@H](Oc1c(F)c(F)cc(F)c1F)[C@H]1CCNC1` [Example 2-56, (S)-3-[(S)-1-(2,3,5,6-Tetrafluorophenoxy)propyl]pyrrolidine], for which the pKi on hNET [1] is at least 8.00; on hSERT [4], at least 7.00.

In the case of `Cc1cc(O[C@@H](C2CC2)[C@H]2CCNC2)c(Cl)c(C)c1Cl` [Example 16-83, (S)-3-[(S)cyclopropyl-(2,4-dichloro-3,5-dimethylphenoxy)-methyl]pyrrolidine], the pKi at hNET [1] is at least 7.00; at hSERT [4], at least 8.00.

`Cc1ccc(O[C@H](C2CC2)[C@@H]2CCNC2)c(Br)c1` [Example 16-26, (R)-3-[(R)-(2-Bromo-4-methylphenoxy)cyclopropylmethyl]pyrrolidine]: the values for the pKi on hNET [1] and on hSERT [4] were at least 7.00 and at least 8.00, respectively.

As for `CC(C)[C@H](Oc1cccc(F)c1)[C@H]1CCNC1` [Example 6-54, (S)-3-[(S)-1-(3-Fluorophenoxy)-2-methylpropyl]pyrrolidine], the results for the pKi at hNET [1] and at hSERT [4] were at least 8.00 and at least 7.00, respectively.
